Reference: paper doi:10.1101/2025.09.11.675743v1 (biorxiv, 2025)

How the values were obtained:
[1] = target: T1, recombinant human TREM2 protein (Homo sapiens, UniProt Q9NZC2); assay: microscale thermophoresis; format: binding
T1 sequence (Q9NZC2 19-174 limits assumed): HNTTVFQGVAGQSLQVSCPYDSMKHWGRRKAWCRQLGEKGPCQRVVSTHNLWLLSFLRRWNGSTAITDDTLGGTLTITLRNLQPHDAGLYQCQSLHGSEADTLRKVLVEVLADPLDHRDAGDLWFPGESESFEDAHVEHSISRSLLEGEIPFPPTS

hERG = hERG (Homo sapiens, UniProt Q12809); assay: hERG safety counterscreen; format: cell-based
Chain of hERG (Q12809 whole entry): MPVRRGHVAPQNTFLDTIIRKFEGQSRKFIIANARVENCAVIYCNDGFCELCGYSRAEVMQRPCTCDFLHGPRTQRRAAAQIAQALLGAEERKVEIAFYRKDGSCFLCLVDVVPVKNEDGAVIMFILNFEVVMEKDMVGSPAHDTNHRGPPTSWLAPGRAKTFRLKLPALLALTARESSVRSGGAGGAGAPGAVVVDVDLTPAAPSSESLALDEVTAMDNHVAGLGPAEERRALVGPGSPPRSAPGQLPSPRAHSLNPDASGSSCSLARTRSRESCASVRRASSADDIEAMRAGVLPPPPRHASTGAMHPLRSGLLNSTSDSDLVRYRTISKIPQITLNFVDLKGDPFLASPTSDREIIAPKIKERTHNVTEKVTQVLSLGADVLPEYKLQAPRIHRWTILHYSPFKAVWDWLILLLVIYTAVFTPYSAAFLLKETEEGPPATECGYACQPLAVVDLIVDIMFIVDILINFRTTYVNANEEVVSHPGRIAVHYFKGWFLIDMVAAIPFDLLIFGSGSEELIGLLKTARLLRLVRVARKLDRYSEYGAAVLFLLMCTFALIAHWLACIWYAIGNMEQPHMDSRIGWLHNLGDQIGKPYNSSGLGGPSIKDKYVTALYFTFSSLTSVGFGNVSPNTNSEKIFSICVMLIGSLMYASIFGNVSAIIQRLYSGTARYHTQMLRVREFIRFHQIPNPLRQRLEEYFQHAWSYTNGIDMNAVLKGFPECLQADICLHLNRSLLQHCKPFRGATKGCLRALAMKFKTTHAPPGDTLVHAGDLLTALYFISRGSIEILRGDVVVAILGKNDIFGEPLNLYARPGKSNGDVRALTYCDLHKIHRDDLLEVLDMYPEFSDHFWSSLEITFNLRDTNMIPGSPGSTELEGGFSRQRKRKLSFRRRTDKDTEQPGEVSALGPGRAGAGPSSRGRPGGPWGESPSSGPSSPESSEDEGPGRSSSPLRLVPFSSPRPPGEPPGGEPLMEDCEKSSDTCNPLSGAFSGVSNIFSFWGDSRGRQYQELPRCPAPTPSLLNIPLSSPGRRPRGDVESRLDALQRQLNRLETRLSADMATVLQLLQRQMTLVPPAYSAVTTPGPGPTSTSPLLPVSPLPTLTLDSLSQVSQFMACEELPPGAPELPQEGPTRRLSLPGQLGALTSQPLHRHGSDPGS

Row | Kd [1] | Structure (SMILES) | IC50 (hERG)
1 | 28.9 ± 1.74 µM | c1ccc(Nc2nc(-c3c[nH]c4ccccc34)cs2)nc1 [T2K-014] | 
2 | 50.8 ± 3.74 µM | c1ccc(Nc2nc(-c3c[nH]c4ccccc34)cs2)cc1 [T2M-002] | 
3 | 1.35 ± 0.16 µM | c1ccc2c(-c3csc(NC4CC4)n3)c[nH]c2c1 [T2M-003] | 
4 | 0.83 ± 0.1 µM | c1ccc(CCNc2nc(-c3c[nH]c4ccccc34)cs2)cc1 [T2M-010] | > 60 µM
5 | 2.44 ± 0.3 µM | CNc1nc(-c2c[nH]c3ccccc23)cs1 [T2M-016] | 
